Assays:
Experiment in all cases: relative viability (nuclei count vs DMSO), 5 days (fraction); higher = more cells survive
Kobe2602 + Linsitinib = compound: C1=CC(=CC=C1NC(=S)NNC2=C(C=C(C=C2[N+](=O)[O-])C(F)(F)F)[N+](=O)[O-])F [Kobe2602] + C[C@]1(O)C[C@@H](c2nc(-c3ccc4ccc(-c5ccccc5)nc4c3)c3c(N)nccn32)C1 [Linsitinib] (partner 1 µM)
In short: (§1)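 Lung cancer cell lines in 1536-well plates were dosed by pin tool the day after seeding, either with one drug alone or with a fixed anchor-drug dose plus five library-drug doses (not always all listed) in √10 steps. After 5 days, cells were fixed and their nuclei stained in one step (final 0.05% Triton X-100, 1% formaldehyde, 1 ug/ml Hoechst), then counted on 4× images. Relative viability is the nuclei count in treated wells divided by that in vehicle wells. Values are medians of duplicate plates.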

[1] = compound: COc1cc2nccc(Oc3ccc(NC(=O)C4(C(=O)Nc5ccc(F)cc5)CC4)cc3)c2cc1OC [Cabozantinib] + CC1(C)CCC(c2ccc(Cl)cc2)=C(CN2CCN(c3ccc(C(=O)NS(=O)(=O)c4ccc(N[C@H](CCN5CCOCC5)CSc5ccccc5)c(S(=O)(=O)C(F)(F)F)c4)cc3)CC2)C1 [Navitoclax] (partner 0.5 µM)
In short: as §1

Zosuquidar + Foretinib = compound: O[C@@H](COc1cccc2ncccc12)CN1CCN([C@@H]2c3ccccc3[C@@H]3[C@H](c4ccccc42)C3(F)F)CC1 [Zosuquidar] + COc1cc2c(Oc3ccc(NC(=O)C4(C(=O)Nc5ccc(F)cc5)CC4)cc3F)ccnc2cc1OCCCN1CCOCC1 [Foretinib] (partner 0.25 µM)
In short: as §1

Zosuquidar + Alpelisib = compound: O[C@@H](COc1cccc2ncccc12)CN1CCN([C@@H]2c3ccccc3[C@@H]3[C@H](c4ccccc42)C3(F)F)CC1 [Zosuquidar] + Cc1nc(NC(=O)N2CCC[C@H]2C(N)=O)sc1-c1ccnc(C(C)(C)C(F)(F)F)c1 [Alpelisib] (partner 2 µM)
In short: as §1

Cell Line | relative viability (Kobe2602 + Linsitinib; first compound 0.2 µM) | relative viability (Kobe2602 + Linsitinib; first compound 0.6325 µM) | relative viability (Kobe2602 + Linsitinib; first compound 2 µM) | relative viability (Kobe2602 + Linsitinib; first compound 6.325 µM) | relative viability (Kobe2602 + Linsitinib; first compound 20 µM) | relative viability ([1]; first compound 0.02 µM) | relative viability ([1]; first compound 0.06325 µM) | relative viability ([1]; first compound 0.6325 µM) | relative viability ([1]; first compound 2 µM) | relative viability (Zosuquidar + Foretinib; first compound 0.01 µM) | relative viability (Zosuquidar + Foretinib; first compound 0.03162 µM) | relative viability (Zosuquidar + Foretinib; first compound 0.1 µM) | relative viability (Zosuquidar + Foretinib; first compound 0.3162 µM) | relative viability (Zosuquidar + Foretinib; first compound 1 µM) | relative viability (Zosuquidar + Alpelisib; first compound 0.01 µM) | relative viability (Zosuquidar + Alpelisib; first compound 0.03162 µM) | relative viability (Zosuquidar + Alpelisib; first compound 0.1 µM) | relative viability (Zosuquidar + Alpelisib; first compound 0.3162 µM) | relative viability (Zosuquidar + Alpelisib; first compound 1 µM) | relative viability ([1]; first compound 0.2 µM)
PC-14 | 0.946 | 0.986 | 0.929 | 0.94 | 0.929 | 1.06 | 1.09 | 0.931 | 0.997 | 0.99 | 0.983 | 0.952 | 0.997 | 0.952 | 0.916 | 1.05 | 0.864 | 0.944 | 0.923 | 
EMC-BAC-2 | 0.794 | 0.869 | 0.817 | 0.796 | 0.793 | 1.16 | 1.36 | 1.14 | 1.22 | 0.965 | 1.11 | 0.995 | 1.06 | 0.985 | 0.715 | 0.793 | 0.677 | 0.82 | 0.761 | 1.2
NCI-H1437 | 0.974 | 0.995 | 1.03 | 0.998 | 0.872 | 1.2 | 1.13 | 1.13 | 1.02 | 1.28 | 1.24 | 1.16 | 1.3 | 1.31 | 0.966 | 0.961 | 0.935 | 1.01 | 0.994 | 1.12
NCI-H2405 | 0.961 | 1.06 | 0.932 | 0.971 | 0.994 |  | 1.09 | 0.787 | 0.856 | 1.05 | 1.06 | 0.946 | 1.05 | 1.04 | 0.968 | 0.745 | 0.605 | 0.972 | 0.837 | 0.881
NCI-H1666 | 0.683 | 0.76 |  | 0.713 | 0.76 | 0.889 | 1.16 | 0.996 | 1.13 | 0.946 | 1.01 | 0.976 | 1.02 | 0.942 | 0.876 | 1.04 | 1.04 | 0.912 | 0.863 | 0.887
NCI-H1993 | 0.725 | 0.826 | 0.753 | 0.698 | 0.783 | 0.934 | 0.901 | 0.851 | 0.991 | 0.758 | 0.724 | 0.701 | 0.81 | 0.673 | 0.628 | 0.725 | 0.625 | 0.674 | 0.705 | 0.857
COR-L23 | 0.798 | 1.09 | 0.941 | 0.894 | 0.939 | 1.07 | 1.16 | 0.973 | 0.931 | 0.994 | 0.926 | 0.956 | 0.962 | 1.06 | 0.88 | 0.783 | 0.789 | 0.902 | 0.723 | 1.03
LU99A | 0.538 | 0.53 | 0.471 | 0.585 | 0.631 | 0.774 | 0.9 | 0.686 | 0.783 | 0.784 | 0.931 | 0.813 | 0.855 | 0.814 | 0.472 | 0.507 | 0.475 | 0.617 | 0.529 | 0.762
NCI-H596 | 1.15 | 1.19 | 1.09 | 1.06 | 0.986 | 1.22 | 1.2 | 0.829 | 0.729 | 0.805 |  | 0.788 | 0.939 | 0.868 | 0.467 | 0.512 | 0.502 | 0.589 | 0.591 | 0.861
NCI-H727 | 0.306 | 0.319 | 0.253 | 0.239 | 0.324 | 0.355 | 0.408 | 0.441 | 0.507 | 0.774 | 0.79 | 0.774 | 0.855 | 0.908 | 0.669 | 0.631 | 0.536 | 0.588 | 0.577 | 0.463
NCI-H1975 | 0.969 | 0.917 | 0.978 | 0.859 | 0.818 | 1.25 | 1.09 | 1.01 | 1.05 | 0.959 | 0.832 | 1.02 | 0.952 | 1.02 | 0.624 | 0.653 | 0.679 | 0.675 | 0.713 | 1.22
NCI-H1355 | 0.784 | 0.782 | 0.749 | 0.769 | 0.787 | 0.96 | 0.974 | 0.893 | 0.861 | 0.951 | 0.989 | 0.9 | 1.02 | 0.923 | 0.851 | 0.801 | 0.596 | 0.971 | 0.87 | 0.967
NCI-H1755 | 0.949 | 0.898 | 0.986 | 0.977 | 0.982 | 1 | 1.07 | 0.87 | 0.807 | 0.908 | 0.894 | 0.841 | 0.959 | 0.932 | 0.89 | 0.951 | 0.888 | 0.94 | 0.913 | 0.972
NCI-H2009 | 1.13 | 1.2 | 1.1 | 1.19 | 1.15 | 1.25 | 1.19 | 1.18 | 1.2 | 1.24 | 1.2 | 1.24 | 1.2 | 1.23 | 1.08 | 0.96 | 1.19 | 1.15 | 1.14 | 1.21
NCI-H1395 | 0.992 | 1 | 1.04 | 1.05 | 1.12 | 1.13 | 1.1 | 1.12 | 1.12 | 0.98 | 0.957 | 0.824 | 1.06 | 1 | 1 | 1.01 | 0.819 | 1.17 | 1.17 | 1.41
HCC-78 | 0.61 | 0.495 |  | 0.459 | 0.611 | 0.71 | 0.682 | 0.224 | 0.186 | 0.549 | 0.548 |  | 0.571 | 0.606 | 0.343 | 0.313 |  | 0.325 | 0.379 | 0.307
NCI-H322M | 0.88 | 1.01 | 0.883 | 1 | 0.921 | 1.24 | 1.4 | 1.2 | 1.19 | 0.961 | 1.19 | 0.723 | 0.983 | 0.972 | 0.836 | 0.739 | 0.648 | 0.859 | 0.728 | 
HOP-62 | 0.837 | 1.11 | 0.974 | 1.01 | 1.12 | 1.13 | 0.987 | 1.05 | 1.13 | 1.09 | 1.25 | 1.01 | 1.1 | 1.08 | 1.05 | 0.79 | 0.907 | 1.08 | 0.988 | 1.07
NCI-H838 | 0.91 | 1.12 | 0.88 | 0.992 | 1.07 | 1.21 | 1.19 | 1.03 | 1.03 | 1.07 | 1 | 0.995 | 1.11 | 1.07 | 0.995 | 0.994 | 0.822 | 1.07 | 1.07 | 1.12
LK-2 | 0.618 | 0.614 | 0.415 | 0.643 | 0.567 | 0.642 | 1 | 0.886 | 0.794 | 1.32 | 1.03 | 1.3 | 1.05 | 1.23 | 1.29 | 1.26 | 0.939 | 1.08 | 1.02 | 0.842
BEN | 0.988 | 1.06 | 0.967 | 0.858 | 0.915 | 0.05 | 0.0759 | 0.213 | 0.0541 | 0.724 | 0.55 | 0.592 | 0.61 | 0.524 | 1.07 | 0.968 | 0.815 | 1 | 1.21 | 0.0381
NCI-H23 | 0.528 | 0.706 | 0.477 | 0.652 | 0.525 |  | 0.913 | 0.71 | 0.644 | 0.979 | 0.875 | 1.02 | 1.04 | 1.09 | 0.669 | 0.718 | 0.728 | 0.704 | 0.687 | 0.972
NCI-H1944 | 1.22 | 1.26 | 1.28 | 1.17 | 1.29 |  | 1.08 | 0.969 | 0.921 | 0.774 | 0.862 | 0.898 | 0.883 | 0.824 | 0.836 | 0.722 | 0.717 | 0.837 | 0.765 | 0.972
NCI-H2085 | 0.926 | 0.829 | 0.864 | 0.977 | 0.97 | 1.16 | 1.17 | 1.21 | 1.06 | 0.855 | 1.02 | 0.837 | 1.01 | 0.981 | 0.957 | 0.917 | 0.893 | 1 | 0.977 | 1.15
LC-2-ad | 0.849 | 0.833 | 0.774 | 0.867 | 0.865 | 0.454 | 0.57 | 0.35 | 0.325 | 0.975 | 0.933 | 0.862 | 1.03 | 0.931 | 0.892 | 0.938 | 0.817 | 0.886 | 0.928 | 0.541
NCI-H1703 | 0.609 | 0.99 | 0.499 | 0.749 | 0.377 | 0.618 | 0.48 | 0.258 | 0.206 | 0.353 | 0.287 | 0.341 | 0.393 | 0.33 | 0.355 | 0.325 | 0.237 | 0.438 | 0.345 | 0.265
EBC-1 | 0.796 | 0.975 | 0.893 | 0.938 | 0.871 | 0.444 | 0.302 | 0.125 | 0.0913 | 0.121 | 0.106 | 0.093 | 0.095 | 0.097 | 0.83 | 0.842 | 0.794 | 1.09 | 0.779 | 0.152

Reference: the supplement of paper PMC10307832
